Experimental data reported in article PMC7125202, “Targeting of radioactive platinum-bisphosphonate anticancer drugs to bone of high metabolic activity” (Scientific Reports, 2020).

Key:
[1] = Pt-BP pH stability assessed by 31P NMR; format: physicochemical; conditions: 120 mM NaCl, D2O, 37 °C
Procedure: ^31P NMR spectra were recorded on a Bruker Avance III […] instrument. Standard pulse sequences were used for ^31P{1H} (121.5 MHz) spectra. Chemical shifts (^31P) were referenced to external H3PO4 (85% w/w; 0 ppm). A Crison Micro-pH meter Model 2002, equipped with Crison microcombination electrodes (5- and 3-mm diameter) and calibrated with Crison standard buffer solution at pH 4.01, 7.02, and 10.00, was used for pH measurements. The pH readings from the pH meter for D2O solutions are indicated as pD values and are uncorrected for the effect of deuterium on glass electrodes. The stability of Pt-BP in buffered solutions at 37 °C was assessed by ^31P NMR spectroscopy as previously reported. Pt-BP (∼4 mg) was dissolved in 0.8 mL of D2O containing (i) 50 mM 4-(2-hydroxyethyl)-1-piperazineethanesulfonic acid) (HEPES) buffer (pD = 7.4) and 120 mM NaCl or (ii) 50 mM 2-(N-morpholino)ethanesulfonic acid (MES) buffer (pD = 5.25) and 120 mM NaCl. The resulting two solutions were transferred into NMR tubes and maintained at 37 °C. ^31P NMR spectra were recorded over a period of 15 days. The relative concentrations of the individual species in solution were deduced from integration of the ^31P signals.
To investigate the stability of Pt-BP in near-physiological conditions, we utilized a medium consisting of D2O containing HEPES buffer (50 mM, pH = 7.4) and NaCl (120 mM) at 37 °C, in which we analyzed Pt-BP stability by ^31P-NMR spectroscopy. […] Two other asymmetrical species are visible in the ^31P-NMR spectrum recorded after 3 h as evidenced by the two pairs of doublets falling at 28.15 and 22.98 ppm and 26.25 and 21.51 ppm (indicated by the black squares and diamonds in Supplement Fig. 2A). […]
To simulate the acidic environment in tumor tissue^3,4, we explored the stability of Pt-BP complexes at pD = 5.25 at 37 °C by ^31P-NMR spectroscopy (Supplement Fig. 2B). […] However, the formation of M was slower at acidic pD, while its hydrolysis, with concomitant formation of free bisphosphonate (BP), was faster than at pD 7.4 since Pt-BP and BP were detected after 48 h (Supplement Fig. 2B).

[2] = cited from earlier work

NCCN.NCCN.O.O.O.O=S(=O)([O-])O.[NH3+]CC1(O)P2(=O)[O][Pt][O]P1(=O)[O][Pt][O]2 (centres unmarked) [Pt-BP, dinuclear bis<ethylenediamineplatinum(II) > -2-amino-1-hydroxyethane-1,1-diyl-bisphosphonate complex]
time of release of both Pt(en) moieties (free BP detected) ([1]; pD 5.25, 50 mM MES): 48 h | time after which no traces of the starting Pt-BP complex were observed ([1]; pD 7.4, 50 mM HEPES): ≤ 24 h | time of release of the second Pt(en) moiety (appearance of free BP) ([1]; pD 7.4, 50 mM HEPES): 96 h | stability in neutral aqueous solution ([2]; pH 7.0, room temperature): stable in neutral aqueous solution (pH 7.0, room temperature) for several months | stability in water at pH > 8.0 ([2]; pH > 8.0): rearranges rather than decomposes
